Experiments:
Assay in all cases: KINOMEscan competition binding
Conditions in all cases: compound 0.1 µM
FGFR2 (human) = FGFR2 (human) (UniProt P21802)
FRK (human) = FRK (human) (UniProt P42685)
PIK3C2G (human) = PIK3C2G (human) (UniProt O75747)
RIPK2 (human) = RIPK2 (human) (UniProt O43353)
[1] = test system: ABL1 (human), P00519 [F317L]
PRKX (human) = PRKX (human) (UniProt P51817)
CAMK2D (human) = CAMK2D (human) (UniProt Q13557)
MYLK4 (human) = MYLK4 (human) (UniProt Q86YV6)
PTK2B (human) = PTK2B (human) (UniProt Q14289)
[2] = test system: EGFR (human), P00533 [L861Q]
WEE1 (human) = WEE1 (human) (UniProt P30291)
[3] = test system: EGFR (human), P00533 [747-751 del / S ins]
MAP3K4 (human) = MAP3K4 (human) (UniProt Q9Y6R4)
[4] = test system: KIT (human), P10721 [D816V]
CDC42BPA (human) = CDC42BPA (human) (UniProt Q5VT25)
[5] = test system: EGFR (human), P00533 [T790M/L858R]
ULK2 (human) = ULK2 (human) (UniProt Q8IYT8)
[6] = test system: MET (human), P08581 [Y1235D]
CDKL1 (human) = CDKL1 (human) (UniProt Q00532)
MYLK (human) = MYLK (human) (UniProt Q15746)
TIE1 (human) = TIE1 (human) (UniProt P35590)
ACVR2B (human) = ACVR2B (human) (UniProt Q13705)
[7] = test system: EGFR (human), P00533 [A750P; 747-749 del]
CLK2 (human) = CLK2 (human) (UniProt P49760)
CRK2 (P.falciparum) = CRK2 (P.falciparum) (UniProt P61075)
HIPK1 (human) = HIPK1 (human) (UniProt Q86Z02)
DYRK1A (human) = DYRK1A (human) (UniProt Q13627)
MAP3K15 (human) = MAP3K15 (human) (UniProt Q6ZN16)
MERTK (human) = MERTK (human) (UniProt Q12866)
[8] = test system: FLT3 (human), P36888 [K663Q]
BUB1 (human) = BUB1 (human) (UniProt O43683)
ACVR1 (human) = ACVR1 (human) (UniProt Q04771)
SRC (human) = SRC (human) (UniProt P12931)
SLK (human) = SLK (human) (UniProt Q9H2G2)
PRKAA1 (human) = PRKAA1 (human) (UniProt Q13131)
ROCK1 (human) = ROCK1 (human) (UniProt Q13464)
PRKCH (human) = PRKCH (human) (UniProt P24723)
MAP3K1 (human) = MAP3K1 (human) (UniProt Q13233)
PIK3CG (human) = PIK3CG (human) (UniProt P48736)
[9] = test system: KIT (human), P10721 [A829P]
Chain of KIT (human), P10721 [A829P] (P10721 whole entry A829P, looked up): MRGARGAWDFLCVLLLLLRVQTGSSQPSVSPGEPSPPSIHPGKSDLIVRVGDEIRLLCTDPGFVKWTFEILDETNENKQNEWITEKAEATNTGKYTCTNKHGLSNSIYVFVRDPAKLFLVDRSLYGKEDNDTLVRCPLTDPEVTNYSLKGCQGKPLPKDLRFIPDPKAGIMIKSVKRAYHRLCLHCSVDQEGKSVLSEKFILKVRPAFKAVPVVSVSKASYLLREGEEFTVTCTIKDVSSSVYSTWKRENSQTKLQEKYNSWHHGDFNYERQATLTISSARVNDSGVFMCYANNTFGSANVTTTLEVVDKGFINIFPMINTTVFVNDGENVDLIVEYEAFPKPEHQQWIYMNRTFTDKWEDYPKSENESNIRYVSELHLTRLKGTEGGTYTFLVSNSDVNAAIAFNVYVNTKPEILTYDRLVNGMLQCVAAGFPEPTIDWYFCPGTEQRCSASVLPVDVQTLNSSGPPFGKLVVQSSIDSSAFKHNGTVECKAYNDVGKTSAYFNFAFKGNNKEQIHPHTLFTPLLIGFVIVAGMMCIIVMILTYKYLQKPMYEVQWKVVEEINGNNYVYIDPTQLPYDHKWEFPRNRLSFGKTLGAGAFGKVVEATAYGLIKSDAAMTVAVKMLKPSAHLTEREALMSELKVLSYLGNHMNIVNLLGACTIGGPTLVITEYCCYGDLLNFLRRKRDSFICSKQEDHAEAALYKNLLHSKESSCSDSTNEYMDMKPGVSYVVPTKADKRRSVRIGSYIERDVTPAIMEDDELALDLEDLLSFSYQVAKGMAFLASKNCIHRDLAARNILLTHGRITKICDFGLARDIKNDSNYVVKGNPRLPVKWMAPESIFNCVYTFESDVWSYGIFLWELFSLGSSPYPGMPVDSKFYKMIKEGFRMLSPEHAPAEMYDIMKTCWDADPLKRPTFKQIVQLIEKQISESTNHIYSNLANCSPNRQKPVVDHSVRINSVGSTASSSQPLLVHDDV

Chain of ACVR1 (human) (Q04771 whole entry, looked up): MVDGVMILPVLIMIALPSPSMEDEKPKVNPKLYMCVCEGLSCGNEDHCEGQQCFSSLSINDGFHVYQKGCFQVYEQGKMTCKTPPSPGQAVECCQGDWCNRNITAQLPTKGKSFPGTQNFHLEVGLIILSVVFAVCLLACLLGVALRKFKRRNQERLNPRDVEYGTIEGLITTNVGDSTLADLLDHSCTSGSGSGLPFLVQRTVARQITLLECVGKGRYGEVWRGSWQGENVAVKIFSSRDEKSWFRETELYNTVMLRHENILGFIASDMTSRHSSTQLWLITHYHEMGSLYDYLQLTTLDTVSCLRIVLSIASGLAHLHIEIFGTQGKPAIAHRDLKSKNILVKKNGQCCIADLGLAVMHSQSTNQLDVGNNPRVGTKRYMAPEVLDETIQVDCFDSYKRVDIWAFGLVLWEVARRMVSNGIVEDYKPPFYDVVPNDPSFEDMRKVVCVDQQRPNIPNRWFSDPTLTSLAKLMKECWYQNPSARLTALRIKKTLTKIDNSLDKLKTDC
Chain of MYLK (human) (Q15746 whole entry, looked up): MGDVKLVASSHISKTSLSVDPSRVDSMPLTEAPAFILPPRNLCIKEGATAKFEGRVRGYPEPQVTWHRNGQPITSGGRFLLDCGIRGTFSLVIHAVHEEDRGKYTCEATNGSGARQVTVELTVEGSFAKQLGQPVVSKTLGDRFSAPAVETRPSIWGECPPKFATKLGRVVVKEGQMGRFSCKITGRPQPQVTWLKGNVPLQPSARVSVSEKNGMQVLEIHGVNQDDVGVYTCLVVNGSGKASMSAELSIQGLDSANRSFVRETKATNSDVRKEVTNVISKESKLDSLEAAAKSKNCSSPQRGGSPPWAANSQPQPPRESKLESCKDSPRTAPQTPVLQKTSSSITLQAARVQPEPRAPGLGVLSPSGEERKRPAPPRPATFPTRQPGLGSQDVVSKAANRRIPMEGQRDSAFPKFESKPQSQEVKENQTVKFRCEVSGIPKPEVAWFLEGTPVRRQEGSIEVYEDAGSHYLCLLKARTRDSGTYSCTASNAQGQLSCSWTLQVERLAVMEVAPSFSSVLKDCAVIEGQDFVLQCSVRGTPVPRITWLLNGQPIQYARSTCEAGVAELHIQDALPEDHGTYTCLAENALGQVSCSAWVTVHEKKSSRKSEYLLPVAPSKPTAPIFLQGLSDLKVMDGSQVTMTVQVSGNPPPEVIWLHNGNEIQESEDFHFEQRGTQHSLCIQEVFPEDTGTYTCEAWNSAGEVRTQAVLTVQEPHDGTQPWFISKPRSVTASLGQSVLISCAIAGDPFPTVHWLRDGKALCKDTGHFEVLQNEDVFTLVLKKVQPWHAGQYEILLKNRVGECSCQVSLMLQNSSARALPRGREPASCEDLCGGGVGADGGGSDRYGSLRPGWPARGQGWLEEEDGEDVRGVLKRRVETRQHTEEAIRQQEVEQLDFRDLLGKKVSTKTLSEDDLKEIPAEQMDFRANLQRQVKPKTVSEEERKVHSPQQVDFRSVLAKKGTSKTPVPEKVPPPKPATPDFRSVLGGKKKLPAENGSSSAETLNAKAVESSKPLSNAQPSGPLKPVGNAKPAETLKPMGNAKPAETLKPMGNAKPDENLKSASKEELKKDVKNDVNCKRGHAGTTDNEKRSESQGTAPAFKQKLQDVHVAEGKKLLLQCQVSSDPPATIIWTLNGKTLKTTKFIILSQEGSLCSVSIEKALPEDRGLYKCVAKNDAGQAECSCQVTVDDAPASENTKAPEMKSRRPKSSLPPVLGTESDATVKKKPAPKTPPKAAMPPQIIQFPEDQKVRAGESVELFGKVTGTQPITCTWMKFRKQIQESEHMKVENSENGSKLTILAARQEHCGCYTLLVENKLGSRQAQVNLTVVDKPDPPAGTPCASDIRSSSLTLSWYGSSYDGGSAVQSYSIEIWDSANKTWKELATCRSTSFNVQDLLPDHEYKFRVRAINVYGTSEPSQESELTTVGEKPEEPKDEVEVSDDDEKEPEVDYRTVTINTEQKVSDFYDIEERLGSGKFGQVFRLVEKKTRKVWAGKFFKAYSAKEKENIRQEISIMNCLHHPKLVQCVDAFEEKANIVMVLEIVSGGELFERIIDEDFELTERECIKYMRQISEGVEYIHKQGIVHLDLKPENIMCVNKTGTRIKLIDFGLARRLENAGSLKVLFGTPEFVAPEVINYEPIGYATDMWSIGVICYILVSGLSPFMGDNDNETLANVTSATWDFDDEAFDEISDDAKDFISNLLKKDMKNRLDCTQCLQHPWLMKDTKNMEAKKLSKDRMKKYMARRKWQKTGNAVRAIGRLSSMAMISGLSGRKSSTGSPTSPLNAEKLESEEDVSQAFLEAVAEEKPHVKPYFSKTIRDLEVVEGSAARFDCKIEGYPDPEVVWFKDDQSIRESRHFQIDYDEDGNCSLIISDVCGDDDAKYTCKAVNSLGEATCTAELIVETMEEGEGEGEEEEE
Chain of WEE1 (human) (P30291 whole entry, looked up): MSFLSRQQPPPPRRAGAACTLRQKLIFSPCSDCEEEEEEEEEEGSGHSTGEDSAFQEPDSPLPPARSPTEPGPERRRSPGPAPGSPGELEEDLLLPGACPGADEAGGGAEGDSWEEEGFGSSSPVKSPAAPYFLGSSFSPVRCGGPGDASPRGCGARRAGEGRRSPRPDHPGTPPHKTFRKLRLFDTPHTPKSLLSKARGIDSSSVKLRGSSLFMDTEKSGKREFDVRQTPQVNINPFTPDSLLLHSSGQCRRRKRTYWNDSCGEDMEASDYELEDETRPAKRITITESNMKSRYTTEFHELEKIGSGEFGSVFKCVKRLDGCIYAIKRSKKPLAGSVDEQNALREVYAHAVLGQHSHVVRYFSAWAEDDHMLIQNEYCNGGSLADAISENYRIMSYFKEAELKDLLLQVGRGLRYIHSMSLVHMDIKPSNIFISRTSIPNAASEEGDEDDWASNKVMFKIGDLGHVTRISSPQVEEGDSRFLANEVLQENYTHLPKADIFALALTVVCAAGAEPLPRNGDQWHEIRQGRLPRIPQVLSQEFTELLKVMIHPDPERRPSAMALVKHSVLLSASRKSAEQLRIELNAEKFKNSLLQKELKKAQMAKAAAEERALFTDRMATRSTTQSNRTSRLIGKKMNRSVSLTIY
Chain of CDKL1 (human) (Q00532 whole entry, looked up): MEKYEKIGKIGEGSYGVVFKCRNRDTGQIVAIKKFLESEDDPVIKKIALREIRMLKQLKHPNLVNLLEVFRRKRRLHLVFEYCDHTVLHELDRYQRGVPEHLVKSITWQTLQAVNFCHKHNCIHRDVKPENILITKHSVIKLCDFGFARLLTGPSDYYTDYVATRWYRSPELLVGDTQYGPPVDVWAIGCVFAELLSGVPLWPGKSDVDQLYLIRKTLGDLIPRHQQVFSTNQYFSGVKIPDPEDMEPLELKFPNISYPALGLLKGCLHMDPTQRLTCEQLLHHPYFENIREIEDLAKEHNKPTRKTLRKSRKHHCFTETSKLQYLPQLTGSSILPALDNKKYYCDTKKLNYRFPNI
Chain of ACVR2B (human) (Q13705 whole entry, looked up): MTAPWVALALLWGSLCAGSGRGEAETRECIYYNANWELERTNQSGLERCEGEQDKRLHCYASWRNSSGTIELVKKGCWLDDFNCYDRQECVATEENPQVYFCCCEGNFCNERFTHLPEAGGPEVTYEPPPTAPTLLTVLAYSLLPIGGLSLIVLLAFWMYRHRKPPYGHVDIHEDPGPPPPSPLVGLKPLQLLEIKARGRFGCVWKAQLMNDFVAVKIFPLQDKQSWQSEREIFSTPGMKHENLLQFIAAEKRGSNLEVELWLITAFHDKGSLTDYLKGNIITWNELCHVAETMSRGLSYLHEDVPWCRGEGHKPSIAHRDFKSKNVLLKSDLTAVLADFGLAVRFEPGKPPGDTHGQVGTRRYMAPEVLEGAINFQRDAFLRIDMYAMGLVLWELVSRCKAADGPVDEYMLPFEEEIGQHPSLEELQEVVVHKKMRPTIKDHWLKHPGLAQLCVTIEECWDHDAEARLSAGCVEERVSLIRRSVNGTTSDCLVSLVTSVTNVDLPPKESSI
Chain of KIT (human), P10721 [D816V] (P10721 whole entry D816V, looked up): as the sequence (P10721 whole entry A829P, looked up) above, with D816V, P829A counted along it

CCc1ccc(C(=O)Nc2cc(CN3CCN(C)CC3)cc(C(F)(F)F)c2)cc1C#Cc1cnc2ccnn2c1
kinase still bound, per cent of control (FGFR2 (human)): 100%
kinase still bound, per cent of control (FRK (human)): 47%
kinase still bound, per cent of control (PIK3C2G (human)): 100%
kinase still bound, per cent of control (RIPK2 (human)): 56%
kinase still bound, per cent of control [1]: 86%
kinase still bound, per cent of control (PRKX (human)): 100%
kinase still bound, per cent of control (CAMK2D (human)): 78%
kinase still bound, per cent of control (MYLK4 (human)): 93%
kinase still bound, per cent of control (PTK2B (human)): 90%
kinase still bound, per cent of control [2]: 100%
kinase still bound, per cent of control (WEE1 (human)): 100%
kinase still bound, per cent of control [3]: 100%
kinase still bound, per cent of control (MAP3K4 (human)): 100%
kinase still bound, per cent of control [4]: 81%
kinase still bound, per cent of control (CDC42BPA (human)): 84%
kinase still bound, per cent of control [5]: 48%
kinase still bound, per cent of control (ULK2 (human)): 86%
kinase still bound, per cent of control [6]: 55%
kinase still bound, per cent of control (CDKL1 (human)): 100%
kinase still bound, per cent of control (MYLK (human)): 100%
kinase still bound, per cent of control (TIE1 (human)): 51%
kinase still bound, per cent of control (ACVR2B (human)): 100%
kinase still bound, per cent of control [7]: 90%
kinase still bound, per cent of control (CLK2 (human)): 85%
kinase still bound, per cent of control (CRK2 (P.falciparum)): 100%
kinase still bound, per cent of control (HIPK1 (human)): 100%
kinase still bound, per cent of control (DYRK1A (human)): 100%
kinase still bound, per cent of control (MAP3K15 (human)): 100%
kinase still bound, per cent of control (MERTK (human)): 52%
kinase still bound, per cent of control [8]: 70%
kinase still bound, per cent of control (BUB1 (human)): 100%
kinase still bound, per cent of control (ACVR1 (human)): 84%
kinase still bound, per cent of control (SRC (human)): 76%
kinase still bound, per cent of control (SLK (human)): 66%
kinase still bound, per cent of control (PRKAA1 (human)): 83%
kinase still bound, per cent of control (ROCK1 (human)): 83%
kinase still bound, per cent of control (PRKCH (human)): 100%
kinase still bound, per cent of control (MAP3K1 (human)): 100%
kinase still bound, per cent of control (PIK3CG (human)): 100%
kinase still bound, per cent of control [9]: 69%

Reference: the kinase profiling compilation of Christmann-Franck et al. (2016)
